Source: the supplement of paper PMC10307832

Experiments:
Assay in all cases: relative viability (nuclei count vs DMSO), 5 days (fraction); higher = more cells survive
AZ3146 + Decitabine = compound: CN1CCC(CC1)OC2=CC(=C(C=C2)NC3=NC=C4C(=N3)N(C(=O)N4C)C5CCCC5)OC [AZ3146] + Nc1ncn([C@H]2C[C@H](O)[C@@H](CO)O2)c(=O)n1 [Decitabine] (partner 2 µM)
Summary of the method: (§1)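 For relative viability, nuclei counts in treated wells were divided by those in vehicle wells. Lung cancer cell lines had been pin-tool dosed in 1536-well plates the day after seeding and cultured for 5 days, then fixed and stained in one step (final 0.05% Triton X-100, 1% formaldehyde, 1 ug/ml Hoechst) and imaged at 4×. Doses were one drug alone or a fixed anchor-drug dose plus five library-drug doses (not always all listed) in √10 steps, and values are duplicate-plate medians.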

AZ3146 + OSI-027 = compound: CN1CCC(CC1)OC2=CC(=C(C=C2)NC3=NC=C4C(=N3)N(C(=O)N4C)C5CCCC5)OC [AZ3146] + COc1cccc2cc(-c3nc([C@H]4CC[C@H](C(=O)O)CC4)n4ncnc(N)c34)[nH]c12 [OSI-027] (partner 0.5 µM)
Summary of the method: as §1

GSK-J4 + Pemetrexed = compound: CCOC(=O)CCNc1cc(N2CCc3ccccc3CC2)nc(-c2ccccn2)n1 [GSK-J4] + Nc1nc2[nH]cc(CCc3ccc(C(=O)N[C@@H](CCC(=O)O)C(=O)O)cc3)c2c(=O)[nH]1 [Pemetrexed] (partner 0.2 µM)
Summary of the method: as §1

AZ3146 + Olaparib = compound: CN1CCC(CC1)OC2=CC(=C(C=C2)NC3=NC=C4C(=N3)N(C(=O)N4C)C5CCCC5)OC [AZ3146] + O=C(c1cc(Cc2n[nH]c(=O)c3ccccc23)ccc1F)N1CCN(C(=O)C2CC2)CC1 [Olaparib] (partner 8 µM)
Summary of the method: as §1

Cell Line | relative viability (AZ3146 + Decitabine; first compound 0.08 µM) | relative viability (AZ3146 + Decitabine; first compound 0.253 µM) | relative viability (AZ3146 + Decitabine; first compound 0.8 µM) | relative viability (AZ3146 + Decitabine; first compound 2.53 µM) | relative viability (AZ3146 + Decitabine; first compound 8 µM) | relative viability (AZ3146 + OSI-027; first compound 0.08 µM) | relative viability (AZ3146 + OSI-027; first compound 0.253 µM) | relative viability (AZ3146 + OSI-027; first compound 0.8 µM) | relative viability (AZ3146 + OSI-027; first compound 2.53 µM) | relative viability (AZ3146 + OSI-027; first compound 8 µM) | relative viability (GSK-J4 + Pemetrexed; first compound 0.5 µM) | relative viability (GSK-J4 + Pemetrexed; first compound 1.581 µM) | relative viability (GSK-J4 + Pemetrexed; first compound 15.81 µM) | relative viability (GSK-J4 + Pemetrexed; first compound 50 µM) | relative viability (AZ3146 + Olaparib; first compound 0.08 µM) | relative viability (AZ3146 + Olaparib; first compound 0.253 µM) | relative viability (AZ3146 + Olaparib; first compound 0.8 µM) | relative viability (AZ3146 + Olaparib; first compound 2.53 µM) | relative viability (AZ3146 + Olaparib; first compound 8 µM) | relative viability (GSK-J4 + Pemetrexed; first compound 5 µM)
NCI-H522 | 0.732 | 0.589 | 0.683 | 0.616 | 0.714 | 0.882 | 0.664 | 0.527 | 0.68 | 0.759 | 0.983 | 0.823 | 0.608 | 1.1 | 0.68 | 0.685 | 0.515 | 0.695 | 0.596 | –
LCLC-103H | 0.675 | 0.732 | 0.742 | 0.741 | 0.729 | 0.423 | 0.474 | 0.529 | 0.456 | 0.501 | 0.483 | 0.374 | 0.42 | 0.509 | 0.755 | 0.765 | 0.778 | 0.749 | 0.745 | 0.378
NCI-H661 | 0.541 | 0.514 | 0.607 | 0.555 | 0.448 | 0.74 | 0.72 | 0.768 | 0.764 | 0.576 | 0.908 | 0.827 | 0.883 | 0.788 | 0.806 | 0.768 | 0.736 | 0.791 | 0.678 | 0.883
NCI-H1944 | 0.329 | 0.44 | 0.429 | 0.445 | 0.468 | 0.382 | 0.359 | 0.446 | 0.464 | 0.374 | 0.553 | 0.565 | 0.48 | 0.586 | 0.36 | 0.391 | 0.408 | 0.475 | 0.473 | –
NCI-H358 | 0.201 | 0.225 | 0.182 | 0.207 | 0.159 | 0.762 | 0.753 | 0.661 | 0.82 | 0.431 | 0.237 | – | 0.171 | 0.188 | 0.555 | 0.578 | 0.592 | 0.583 | 0.442 | 0.171
NCI-H2126 | 0.626 | 0.604 | 0.569 | 0.597 | 0.572 | 0.6 | 0.706 | 0.537 | 0.784 | 0.649 | 0.716 | 0.593 | 0.621 | 0.555 | 0.908 | 0.898 | 0.897 | 0.967 | 0.862 | 0.733
HCC-78 | – | 0.746 | 0.623 | 0.744 | 0.728 | 0.3 | 0.381 | 0.322 | 0.357 | 0.365 | 0.916 | 0.841 | 0.957 | 0.929 | – | 0.863 | 0.765 | 0.767 | 0.798 | 0.929
PC-14 | 0.208 | 0.2 | 0.249 | 0.15 | 0.0833 | 0.805 | 0.784 | 0.741 | 0.853 | 0.185 | 0.128 | 0.143 | 0.143 | 0.17 | 0.286 | 0.319 | 0.259 | 0.225 | 0.0944 | 0.13
